From ChEMBL document CHEMBL4316628, “Bioactivity-guided identification of flavonoids with cholinesterase and β-amyloid peptide aggregation inhibitory effects from the seeds of Millettia pachycarpa” (Bioorg Med Chem Lett, 2019) come the findings set out here.

Experiment [1] has as its target T1, Cholinesterase (Homo sapiens, UniProt P06276). Put plainly: Binding affinity to BChE (unknown origin) assessed as reduction in intrinsic protein fluorescence at 25 degC by fluorescence spectrophotometry.
For experiment [2], the target named is Amyloid-beta precursor protein (Homo sapiens) (UniProt P05067). In words: Inhibition of amyloid beta (1 to 42) (unknown origin) self-aggregation at 40 uM incubated for 48 hrs by thioflavin-T fluorescence method.
Chain of Amyloid-beta precursor protein (Homo sapiens) (P05067 whole entry): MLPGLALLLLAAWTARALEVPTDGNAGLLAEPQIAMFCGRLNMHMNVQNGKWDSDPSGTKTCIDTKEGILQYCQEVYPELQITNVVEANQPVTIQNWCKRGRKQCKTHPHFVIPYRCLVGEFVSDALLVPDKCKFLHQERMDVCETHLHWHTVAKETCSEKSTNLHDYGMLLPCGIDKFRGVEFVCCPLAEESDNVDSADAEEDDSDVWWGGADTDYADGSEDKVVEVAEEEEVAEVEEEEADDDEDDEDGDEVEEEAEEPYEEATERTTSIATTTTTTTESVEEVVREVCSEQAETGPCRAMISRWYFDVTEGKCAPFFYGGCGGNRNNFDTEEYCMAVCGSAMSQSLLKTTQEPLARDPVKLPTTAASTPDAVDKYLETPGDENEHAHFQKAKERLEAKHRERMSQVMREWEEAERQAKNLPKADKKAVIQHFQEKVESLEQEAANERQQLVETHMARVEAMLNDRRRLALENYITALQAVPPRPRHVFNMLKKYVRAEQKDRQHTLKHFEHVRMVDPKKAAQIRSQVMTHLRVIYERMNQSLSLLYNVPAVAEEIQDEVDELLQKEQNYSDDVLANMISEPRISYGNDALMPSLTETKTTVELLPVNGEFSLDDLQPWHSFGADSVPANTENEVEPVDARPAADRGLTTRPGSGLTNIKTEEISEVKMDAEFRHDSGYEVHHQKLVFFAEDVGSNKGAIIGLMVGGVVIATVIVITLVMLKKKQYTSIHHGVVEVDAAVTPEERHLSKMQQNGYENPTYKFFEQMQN
Experiment [3] has the same target. Put plainly: Inhibition of amyloid beta (1 to 42) (unknown origin) self-aggregation at 80 uM incubated for 48 hrs by thioflavin-T fluorescence method.
Experiment [4] has as its target T2, Acetylcholinesterase (Homo sapiens, UniProt P22303). In words: Inhibition of AChE (unknown origin) using acetylthiocholine iodide as substrate by spectrophotometry based Ellman's method.
Experiment [5] addresses T1, Cholinesterase. In words: Inhibition of BChE (unknown origin) at 20 ug/mL using butyrylthiocholine iodide as substrate by spectrophotometry based Ellman's method.
Experiment [6] addresses Amyloid-beta precursor protein (Homo sapiens) (UniProt P05067). Put plainly: Inhibition of amyloid beta (1 to 42) (unknown origin) self-aggregation at 20 uM incubated for 48 hrs by thioflavin-T fluorescence method.
Experiment [7] concerns the target T1, Cholinesterase. In words: Inhibition of BChE (unknown origin) using butyrylthiocholine iodide as substrate by spectrophotometry based Ellman's method.
The target in experiment [8] is T1, Cholinesterase. Put plainly: Mixed type inhibition of BChE (unknown origin) using butyrylthiocholine iodide as substrate by Ellman's method based Lineweaver-Burk plot analysis.
Experiment [9] has as its target T2, Acetylcholinesterase. Put plainly: Competitive type inhibition of AChE (unknown origin) using acetylthiocholine iodide as substrate by Ellman's method based Lineweaver-Burk plot analysis.
The next experiment addresses Beta-secretase 1 (Homo sapiens, UniProt P56817). Put plainly: Inhibition of BACE1 (unknown origin) expressed in baculovirus-expression system using Rh-EVNLDAEFK-Quencher substrate by FRET assay.
For experiment [10], the target named is Amyloid-beta precursor protein (Homo sapiens) (UniProt P05067). In words: Inhibition of amyloid beta (1 to 42) (unknown origin) self-aggregation incubated for 48 hrs by thioflavin-T fluorescence method.
Experiment [11] concerns the target T2, Acetylcholinesterase. Put plainly: Binding affinity to AChE (unknown origin) assessed as reduction in intrinsic protein fluorescence at 25 degC by fluorescence spectrophotometry.
Experiment [12] has as its target T1, Cholinesterase. The note with it: 100 ug/mL.
Description: Inhibition of BChE (unknown origin) at 100 ug/mL using butyrylthiocholine iodide as substrate by spectrophotometry based Ellman's method

Calls of active or inactive are those of the source. The rule behind the calls is not given here.

T1 sequence (P06276 whole entry): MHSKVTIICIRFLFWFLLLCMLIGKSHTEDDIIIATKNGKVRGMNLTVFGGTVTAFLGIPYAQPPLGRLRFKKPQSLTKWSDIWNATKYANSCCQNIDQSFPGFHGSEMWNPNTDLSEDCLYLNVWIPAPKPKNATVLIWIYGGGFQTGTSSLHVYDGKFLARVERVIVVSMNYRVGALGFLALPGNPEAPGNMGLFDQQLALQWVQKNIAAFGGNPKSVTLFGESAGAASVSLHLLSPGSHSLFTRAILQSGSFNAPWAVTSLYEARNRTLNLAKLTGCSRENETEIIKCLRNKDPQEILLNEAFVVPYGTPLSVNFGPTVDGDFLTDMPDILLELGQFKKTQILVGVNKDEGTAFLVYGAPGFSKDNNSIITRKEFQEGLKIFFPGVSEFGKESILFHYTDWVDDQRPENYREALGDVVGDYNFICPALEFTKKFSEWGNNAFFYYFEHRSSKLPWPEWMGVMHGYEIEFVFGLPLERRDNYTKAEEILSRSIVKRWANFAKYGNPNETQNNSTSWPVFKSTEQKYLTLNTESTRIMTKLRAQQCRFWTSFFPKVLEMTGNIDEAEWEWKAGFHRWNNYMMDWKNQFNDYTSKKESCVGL
T2 sequence (P22303 whole entry): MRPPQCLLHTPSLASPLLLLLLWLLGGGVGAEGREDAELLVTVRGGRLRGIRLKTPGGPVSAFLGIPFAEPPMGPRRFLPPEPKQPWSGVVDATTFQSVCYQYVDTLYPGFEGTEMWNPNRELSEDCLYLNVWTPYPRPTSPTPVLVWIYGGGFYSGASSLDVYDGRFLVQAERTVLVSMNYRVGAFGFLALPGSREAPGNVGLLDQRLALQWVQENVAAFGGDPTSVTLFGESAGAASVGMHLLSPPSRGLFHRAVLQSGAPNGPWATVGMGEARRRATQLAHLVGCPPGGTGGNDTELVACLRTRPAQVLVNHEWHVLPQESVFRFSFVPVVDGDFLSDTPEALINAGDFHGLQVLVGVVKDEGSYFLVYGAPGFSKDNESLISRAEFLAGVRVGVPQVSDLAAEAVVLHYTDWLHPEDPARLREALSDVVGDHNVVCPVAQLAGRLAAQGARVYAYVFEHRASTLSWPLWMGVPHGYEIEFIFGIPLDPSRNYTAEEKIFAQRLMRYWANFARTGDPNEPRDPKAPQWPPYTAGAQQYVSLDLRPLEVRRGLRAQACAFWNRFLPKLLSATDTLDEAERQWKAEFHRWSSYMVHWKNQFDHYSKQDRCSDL
Chain of Beta-secretase 1 (P56817 whole entry): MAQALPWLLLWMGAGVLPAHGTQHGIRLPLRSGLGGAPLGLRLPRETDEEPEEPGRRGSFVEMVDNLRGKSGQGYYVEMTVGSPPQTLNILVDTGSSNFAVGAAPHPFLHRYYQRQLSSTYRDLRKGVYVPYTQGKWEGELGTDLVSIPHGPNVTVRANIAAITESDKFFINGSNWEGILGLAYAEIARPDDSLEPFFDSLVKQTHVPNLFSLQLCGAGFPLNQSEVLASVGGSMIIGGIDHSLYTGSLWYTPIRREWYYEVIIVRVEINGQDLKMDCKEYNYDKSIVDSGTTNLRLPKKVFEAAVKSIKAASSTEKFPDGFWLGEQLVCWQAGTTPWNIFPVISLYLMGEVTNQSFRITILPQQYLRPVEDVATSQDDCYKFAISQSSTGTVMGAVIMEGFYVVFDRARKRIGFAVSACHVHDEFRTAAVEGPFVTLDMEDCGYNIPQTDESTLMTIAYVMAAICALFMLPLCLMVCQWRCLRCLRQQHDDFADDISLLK

`COc1ccc(-c2coc3c4c(ccc3c2=O)OC(C)(C)C=C4)cc1OC`: the IC50 was 7.82 µM at Cholinesterase [1], 131 µM on Acetylcholinesterase [4] (read-out: IC50) and 2.34 µM on Cholinesterase [7] (read-out: IC50). For the same compound, the inhibition result in [2], in experiment [3] and in experiment [6] was “inactive” throughout. Besides, the inhibition against Cholinesterase [5] turned out to be 98.2%. On Cholinesterase [8], this compound registered a Ki of 0.92 µM.
As to `COc1cc(OC)c(-c2coc3c4c(ccc3c2=O)OC(C)(C)C=C4)cc1OC`, the inhibition result in experiment [2], in experiment [3] and in experiment [6] was “inactive” in each case. Moreover, the IC50 at Acetylcholinesterase [4] (read-out: IC50) is 122 µM; at Cholinesterase [7] (read-out: IC50), 21.8 µM. For the same compound, the inhibition at Cholinesterase [5] turned out to be 68.5%.
On to `COc1ccc(C2CC(=O)c3ccc4c(c3O2)C=CC(C)(C)O4)cc1` (centres undefined), for which the IC50 was determined as 91.1 µM at Acetylcholinesterase [4] (read-out: IC50) and 225 µM at Cholinesterase [7] (read-out: IC50). For the same compound, on Cholinesterase [5], the inhibition turned out to be 24.7%.
For the compound `COC1=CC(=O)C(OC)(OC)C=C1[C@@]1(O)C(=O)c2ccc3c(c2O[C@@H]1CO)C=CC(C)(C)O3`, the IC50 result on Acetylcholinesterase [4] and against Cholinesterase [7] was “Not Active” throughout. At Cholinesterase [5], this compound showed an inhibition of 17.1%.
Consider `COc1cc2c(cc1OC)[C@]1(O)C(=O)c3ccc4c(c3O[C@@H]1CO2)C=CC(C)(C)O4` [TEPHROSIN], for which the concentration for half-maximal inhibition (IC50) was 127 µM at Acetylcholinesterase [4] (read-out: IC50) and “Not Active” at Cholinesterase [7]. Besides, the inhibition on Cholinesterase [5] amounted to 16.2%.
In the case of `CC1(C)C=Cc2c(ccc(C(=O)/C=C/c3ccc(O)cc3)c2O)O1`, the Activity entry at Cholinesterase [1] and at Acetylcholinesterase [11] was “Dose-dependent effect” in each case. Further, the IC50 on Cholinesterase [1] is 2.57 µM; on Acetylcholinesterase [4] (read-out: IC50) it was 17.1 µM; against Beta-secretase 1, 9.8 µM; at Cholinesterase [7] (read-out: IC50) it was 5.68 µM; at Acetylcholinesterase [11] it was 29.6 µM. In addition, the Ki turned out to be 7.39 µM on Acetylcholinesterase [9] and 3.48 µM on Cholinesterase [8]. Moreover, the inhibition in experiment [2] is 65.7%; in [3], 73.3%; against Cholinesterase [5], 86.5%; in [6], 53.7%; in experiment [10] it was “Dose-dependent effect”.
For the compound `COc1ccc2c3c1O[C@H]1C[C@@H](O)C=C[C@@]31CCN(C)C2`, the inhibition at Cholinesterase [12] and against Cholinesterase [5] was 94.6% throughout.
`COc1cc2c(cc1OC)[C@@H]1C(=O)c3ccc4c(c3O[C@@H]1CO2)C=CC(C)(C)O4` [DEGUELIN]: the IC50 on Acetylcholinesterase [4] (read-out: IC50) was 127 µM; against Cholinesterase [7] it was “Not Active”. On Cholinesterase [5], this compound had an inhibition of 14.2%.
As for `C=C(C)[C@H]1Cc2c(ccc3c2O[C@@H]2COc4cc(OC)c(OC)cc4[C@]2(O)C3=O)O1` [ROTENOLONE], the IC50 entry at Acetylcholinesterase [4] and at Cholinesterase [7] was “Not Active” in each case. In addition, the inhibition at Cholinesterase [5] is 9.87%.
For the compound `COc1cc(/C=C/C(=O)CC(=O)/C=C/c2ccc(O)c(OC)c2)ccc1O`, the inhibition entry in experiment [2], in [3] and in experiment [6] was “Active” each time.
As to `CC1(C)C=Cc2c(ccc3c2OC(c2ccc(O)cc2)CC3=O)O1` (centres undefined), the IC50 at Cholinesterase [1] is 3.57 µM; against Acetylcholinesterase [4] it was “Not Active”; on Cholinesterase [7] (read-out: IC50), 11.5 µM. In addition, the inhibition in [2] worked out at 63.5%; in experiment [3], 73.5%; against Cholinesterase [5], 91.9%; in experiment [6], 50.9%. At Cholinesterase [8], this compound yielded an inhibition constant Ki of 3.73 µM.
Regarding `COc1ccc(/C=C/C(=O)c2ccc3c(c2O)C=CC(C)(C)O3)cc1`, the 50% inhibitory concentration (IC50) on Acetylcholinesterase [4] (read-out: IC50) was determined as 74.7 µM; on Cholinesterase [7] (read-out: IC50), 102 µM. At Cholinesterase [5], this compound registered an inhibition of 37%.
